Measured values taken from ChEMBL document CHEMBL1154197, “Synthesis and biological evaluation of berberine analogues as novel up-regulators for both low-density-lipoprotein receptor and insulin receptor” (2009).
Active and inactive are the calls of the source. The rule behind the calls is not given here.

What was measured:
[1] = test system: HepG2; test: Upregulation of InsR mRNA expression in human liver HepG2 at 10 ug/mL after 8 hrs by RT-PCR relative to control; type: functional
[2] = test system: HepG2; test: Upregulation of LDLR mRNA expression in human liver HepG2 at 10 ug/mL after 8 hrs by RT-PCR relative to control; type: functional
[3] = test system: HepG2; test: Upregulation of InsR […] expression in human liver HepG2 at 10 ug/mL after 12 hrs by flow cytometry; type: functional, cell-based
[4] = test system: HepG2; test: Upregulation of LDLR […] expression in human liver HepG2 at 10 ug/mL after 12 hrs by flow cytometry; type: functional, cell-based

| Compound | fold change (FC) [1] | fold change (FC) [2] | Activity [3] | Activity [4] |
| --- | --- | --- | --- | --- |
| Oc1ccc2cc3[n+](cc2c1)CCc1cc2c(cc1-3)OCO2.[Cl-] | 1.4 | 1.9 |  |  |
| COc1cc2cc3[n+](cc2cc1OC)CCc1cc(OC)c(OC)c(OC)c1-3.[Cl-] | 0.8 | 1.1 |  |  |
| COc1cc2cc3[n+](cc2cc1OC)CCc1cc(O)ccc1-3.[Cl-] | 0.7 | 0.9 |  |  |
| COc1cc2cc3[n+](cc2cc1OC)CCc1cc(OCc2ccccc2)ccc1-3.[Cl-] | 0.8 | 1 |  |  |
| COc1cc2cc3[n+](cc2cc1OC)CCc1cc2c(cc1-3)OCO2.[Cl-] [PSEUDOBERBERINE] | 1.2 | 3.1 |  |  |
| COc1cc2c(cc1O)CC[n+]1cc3cc(O)ccc3cc1-2.[Cl-] | 1.2 | 1.4 |  |  |
| COc1ccc2cc3[n+](cc2c1OC)CCc1cc(OCc2ccccc2)ccc1-3.[Cl-] | 1.3 | 1.3 |  |  |
| COc1c(O)ccc2cc3[n+](cc12)CCc1cc2c(cc1-3)OCO2.[Cl-] [THALIFENDINE] | 1.7 | 1.6 | Active | Active |
| COc1cc2c(cc1OC)-c1cc3ccc(O)cc3c[n+]1CC2.[Cl-] | 0.9 | 1 |  |  |
| COc1cc2c(cc1OCc1ccccc1)-c1cc3ccc(OC)c(OC)c3c[n+]1CC2.[Cl-] | 1.7 | 1.5 |  |  |
| COc1cc2c(cc1O)-c1cc3cc(OC)c(OC)cc3c[n+]1CC2.[Cl-] | 0.8 | 1.1 |  |  |
| COc1cc2c(cc1OC)-c1cc3cc(OC)c(OC)cc3c[n+]1CC2.[Cl-] | 1.1 | 1.1 |  |  |
| COc1cc2c(cc1O)CC[n+]1cc3cc(OC)c(OC)cc3cc1-2.[Cl-] [DEHYDRODISCRETINE CHLORIDE] | 0.6 | 1 |  |  |
| COc1ccc2cc3[n+](cc2c1OC)CCc1cc2c(cc1-3)OCO2.[Cl-] [BERBERINE CHLORIDE] | 2.3 | 1.9 |  |  |
| COc1ccc2cc3[n+](cc2c1OC)CCc1cc(O)ccc1-3.[Cl-] | 1.2 | 0.8 |  |  |
| COc1cc2c(c(OC)c1OC)-c1cc3ccc(OC)c(OC)c3c[n+]1CC2.[Cl-] | 1.2 | 1.1 |  |  |
| COc1cc2c(cc1O)CC[n+]1cc3cc(OC)c(OC)c(OC)c3cc1-2.[Cl-] | 1 | 1 |  |  |
